Laboratory results as given in publication PMC6277767, “Broad and Region-Specific Impacts of the Synthetic Cannabinoid CP 55,940 in Adolescent and Adult Female Mouse Brains” (Frontiers in Molecular Neuroscience, 2018).

System: CD1 female mouse brain lipidome
Assay: Brain-region lipid levels (HPLC/MS/MS lipidomics) 2 h after single i.p. 3 mg/kg CP 55,940 vs vehicle
Type: in vivo
Settings: thalamus
Description: The Bloomington Institutional Animal Care and Use Committee of Indiana University reviewed and approved the animal procedures. Female mice from the CD1 strain were utilized to match our study examining THC’s effects on the brain lipidome ([Leishman et al., 2018]). Mice were given a single i.p. injection of either 3 mg/kg CP or 1:1:18 cremophor:ethanol:saline vehicle (please refer to the section “3 mg/kg CP Is Relevant for Synthetic Cannabinoid Abuse and Has Stronger Effects on the Female Mouse Brain Lipidome During Adolescence” for a justification of dose and use of female mice). Three different age groups were given injections: PND 35 and PND 50 adolescents, and adult mice (PND 113). At least eight mice in each age group received CP and at least eight received vehicle. Matching the THC study time course ([Leishman et al., 2018]), mice were sacrificed via rapid decapitation 2 h after injection. Brains were immediately removed and flash-frozen in liquid nitrogen, and then stored at -80°C until dissections were performed. Brains were dissected on an ice-cold dissection plate into the following regions: STR, HIPP, CER, THAL, CTX, HYP, MID, and STEM. These abbreviations for these brain areas will be used exclusively when discussing the results generated by these specific dissections. Each dissected area was immediately placed in liquid nitrogen and then stored at -80°C until used for lipid extraction.
Tissue extracts were performed as previously described ([Bradshaw et al., 2006]; [Stuart et al., 2013]; [Raboune et al., 2014]; [Leishman et al., 2016a],[b], [2017], [2018]). First, samples were shock frozen in liquid nitrogen, weighed, and transferred to a centrifuge tube. The mass of the largest sample was multiplied by 50 to determine how many milliliters of HPLC-grade methanol (Fisher, Fair Lawn, NJ, United States) to add. Then, samples were spiked with 500 pmol deuterium-labeled NAGly (d8NAGly; Cayman Chemical, Ann Arbor, MI, United States). Samples were placed on ice in darkness for 2 h then individually homogenized and centrifuged at 19,000 × g for 20 min at 20°C. Supernatants were diluted with HPLC water (purified in house) to make a solution of 75% water, 25% supernatant. Lipids were partially purified on C18 solid phase extraction columns (Agilent, Palo Alto, CA, United States). A series of four elutions with 1.5 mL of 60%, 75%, 85%, and 100% methanol were collected ([Stuart et al., 2013]; [Leishman et al., 2016a],[b], [2018]).
As previously described ([Bradshaw et al., 2006]; [Tan et al., 2006]; [Smoum et al., 2010]; [Stuart et al., 2013]; [Tortoriello et al., 2013]; [Raboune et al., 2014]; [Leishman et al., 2016a],[b], [2017], [2018]), samples were analyzed using an Applied Biosystems API 3000 triple quadrupole mass spectrometer with electrospray ionization (Foster City, CA, United States). Using an Agilent XDB-C18 reversed phase analytical column and optimized mobile phase gradients, 20 μL from each elution were chromatographed. Two Shimadzu 10ADvp pumps (Columbia, MD, United States) provided the pressure for gradient elution. Mobile phase A: 20% methanol, 80% water (v/v) and 1 mM ammonium acetate (Sigma, St. Louis, MO, United States). Mobile phase B: 100% methanol, 1 mM ammonium acetate. Every method run began with 0% mobile phase B, reached 100% mobile phase B flowing at 0.2 mL/min, and gradually returned to 0% mobile phase B.
This screening library will be referred to as the lipidome when discussing data from this study. HPLC/MS/MS data were analyzed using Analyst software (Applied Biosystems) ([Bradshaw et al., 2006]; [Tan et al., 2006]; [Stuart et al., 2013]; [Tortoriello et al., 2013]; [Raboune et al., 2014]; [Leishman et al., 2016a],[b], [2017], [2018]). Chromatograms (Supplementary Figure 3) were generated by determining the retention time of analytes from the analytical column with a [M-1] or [M+1] parent peak and a fragmentation peak corresponding to the programmed values. […]

[1] = WT adult female mice, 3mg/kg CP 55,940

CCCCCCC(C)(C)c1ccc([C@@H]2C[C@H](O)CC[C@H]2CCCO)c(O)c1 [CP 55,940]
N-docosahexaenoyl ethanolamine level, Mean [1]: 2.99E-11 | N-docosahexaenoyl glycine level, Mean [1]: 1.3E-13 | N-docosahexaenoyl phenylalanine level, Mean [1]: 4.66E-14 | N-linoleoyl GABA level, Mean [1]: 7.91E-12 | N-linoleoyl alanine level, Mean [1]: 5.44E-13 | N-linoleoyl ethanolamine level, Mean [1]: 1.72E-11 | N-linoleoyl glycine level, Mean [1]: 9.08E-14 | N-linoleoyl serine level, Mean [1]: 4.53E-11 | N-oleoyl GABA level, Mean [1]: 1.73E-11 | N-oleoyl alanine level, Mean [1]: 2.34E-12 | N-oleoyl ethanolamine level, Mean [1]: 1.6E-10 | N-oleoyl glycine level, Mean [1]: 4.19E-13 | N-oleoyl leucine level, Mean [1]: 7.81E-13 | N-oleoyl methionine level, Mean [1]: 5.74E-13 | N-oleoyl phenylalanine level, Mean [1]: 4.73E-13 | N-oleoyl serine level, Mean [1]: 2E-10 | N-palmitoyl GABA level, Mean [1]: 2.74E-11 | N-palmitoyl alanine level, Mean [1]: 2.22E-12 | N-palmitoyl ethanolamine level, Mean [1]: 6.49E-11 | N-palmitoyl glycine level, Mean [1]: 2.5E-12 | N-palmitoyl leucine level, Mean [1]: 2.46E-12 | N-palmitoyl methionine level, Mean [1]: 3.82E-12 | N-palmitoyl phenylalanine level, Mean [1]: 4.13E-13 | N-palmitoyl serine level, Mean [1]: 1.13E-11 | N-palmitoyl tyrosine level, Mean [1]: 3.42E-13 | N-palmitoyl valine level, Mean [1]: 1.9E-13 | N-stearoyl GABA level, Mean [1]: 1.7E-11 | N-stearoyl alanine level, Mean [1]: 2.97E-12 | N-stearoyl ethanolamine level, Mean [1]: 1.06E-11 | N-stearoyl glycine level, Mean [1]: 1.83E-12 | N-stearoyl leucine level, Mean [1]: 1.05E-12 | N-stearoyl methionine level, Mean [1]: 4.98E-13 | N-stearoyl phenylalanine level, Mean [1]: 2.37E-13 | N-stearoyl serine level, Mean [1]: 2.33E-11 | N-stearoyl tyrosine level, Mean [1]: 8.82E-14 | Oleic acid level, Mean [1]: 4.55E-10 | PGE2 level, Mean [1]: 1.93E-10 | PhosphoLEA level, Mean [1]: 3.87E-12 | 2-arachidonoyl glycerol: Direction (relative to Veh) (adult, 3 mg/kg CP 55,940): ↓ | 2-arachidonoyl glycerol: Magnitude (x Veh level) (adult, 3 mg/kg CP 55,940): 0.81 x Veh level | 2-linoleoyl glycerol: Direction (relative to Veh) (adult, 3 mg/kg CP 55,940): ↓ | 2-linoleoyl glycerol: Magnitude (x Veh level) (adult, 3 mg/kg CP 55,940): 0.77 x Veh level | 6-ketoPGF1α: Direction (relative to Veh) (adult, 3 mg/kg CP 55,940): ↑ | 6-ketoPGF1α: Magnitude (x Veh level) (adult, 3 mg/kg CP 55,940): 1.23 x Veh level | Arachidonic acid: Direction (relative to Veh) (adult, 3 mg/kg CP 55,940): ↓ | Arachidonic acid: Magnitude (x Veh level) (adult, 3 mg/kg CP 55,940): 0.83 x Veh level | N-arachidonoyl GABA: Direction (relative to Veh) (adult, 3 mg/kg CP 55,940): ↓ | N-arachidonoyl GABA: Magnitude (x Veh level) (adult, 3 mg/kg CP 55,940): 0.80 x Veh level | N-arachidonoyl alanine: Direction (relative to Veh) (adult, 3 mg/kg CP 55,940): ↓ | N-arachidonoyl alanine: Magnitude (x Veh level) (adult, 3 mg/kg CP 55,940): 0.63 x Veh level | N-arachidonoyl ethanolamine: Direction (relative to Veh) (adult, 3 mg/kg CP 55,940): ↓ | N-arachidonoyl ethanolamine: Magnitude (x Veh level) (adult, 3 mg/kg CP 55,940): 0.81 x Veh level | N-arachidonoyl glycine: Direction (relative to Veh) (adult, 3 mg/kg CP 55,940): ↓ | N-arachidonoyl glycine: Magnitude (x Veh level) (adult, 3 mg/kg CP 55,940): 0.63 x Veh level | N-oleoyl ethanolamine: Direction (relative to Veh) (adult, 3 mg/kg CP 55,940): ↓ | N-oleoyl ethanolamine: Magnitude (x Veh level) (adult, 3 mg/kg CP 55,940): 0.79 x Veh level | N-palmitoyl GABA: Direction (relative to Veh) (adult, 3 mg/kg CP 55,940): ↑ | N-palmitoyl GABA: Magnitude (x Veh level) (adult, 3 mg/kg CP 55,940): 1.13 x Veh level | N-palmitoyl ethanolamine: Direction (relative to Veh) (adult, 3 mg/kg CP 55,940): ↓ | N-palmitoyl ethanolamine: Magnitude (x Veh level) (adult, 3 mg/kg CP 55,940): 0.86 x Veh level | N-palmitoyl leucine: Direction (relative to Veh) (adult, 3 mg/kg CP 55,940): ↑ | N-palmitoyl leucine: Magnitude (x Veh level) (adult, 3 mg/kg CP 55,940): 1.36 x Veh level | N-palmitoyl methionine: Direction (relative to Veh) (adult, 3 mg/kg CP 55,940): ↑ | N-palmitoyl methionine: Magnitude (x Veh level) (adult, 3 mg/kg CP 55,940): 1.25 x Veh level | N-palmitoyl valine: Direction (relative to Veh) (adult, 3 mg/kg CP 55,940): ↑ | N-palmitoyl valine: Magnitude (x Veh level) (adult, 3 mg/kg CP 55,940): 1.95 x Veh level | Oleic acid: Direction (relative to Veh) (adult, 3 mg/kg CP 55,940): ↓ | Oleic acid: Magnitude (x Veh level) (adult, 3 mg/kg CP 55,940): 0.78 x Veh level | 2-linoleoyl glycerol Direction (relative to Veh) (PND 35, 3 mg/kg CP 55,940): ↓ | 2-linoleoyl glycerol Magnitude (x Veh level) (PND 35, 3 mg/kg CP 55,940): 0.79 x Veh level | 6-ketoPGF1α Direction (relative to Veh) (PND 35, 3 mg/kg CP 55,940): ↓ | 6-ketoPGF1α Magnitude (x Veh level) (PND 35, 3 mg/kg CP 55,940): 0.77 x Veh level | N-arachidonoyl GABA Direction (relative to Veh) (PND 35, 3 mg/kg CP 55,940): ↓ | N-arachidonoyl GABA Magnitude (x Veh level) (PND 35, 3 mg/kg CP 55,940): 0.72 x Veh level | N-arachidonoyl alanine Magnitude (x Veh level) (PND 35, 3 mg/kg CP 55,940): 0.82 x Veh level | N-arachidonoyl alanine, Direction (relative to Veh) (PND 35, 3 mg/kg CP 55,940): ↓ | N-arachidonoyl ethanolamine, Direction (relative to Veh) (PND 35, 3 mg/kg CP 55,940): ↑ | N-arachidonoyl ethanolamine, Magnitude (x Veh level) (PND 35, 3 mg/kg CP 55,940): 1.21 x Veh level | N-arachidonoyl glycine Direction (relative to Veh) (PND 35, 3 mg/kg CP 55,940): ↓ | N-arachidonoyl glycine Magnitude (x Veh level) (PND 35, 3 mg/kg CP 55,940): 0.86 x Veh level | N-arachidonoyl phenylalanine, Direction (relative to Veh) (PND 35, 3 mg/kg CP 55,940): ↑ | N-arachidonoyl phenylalanine, Magnitude (x Veh level) (PND 35, 3 mg/kg CP 55,940): 1.20 x Veh level | N-arachidonoyl serine Direction (relative to Veh) (PND 35, 3 mg/kg CP 55,940): ↓ | N-arachidonoyl serine Magnitude (x Veh level) (PND 35, 3 mg/kg CP 55,940): 0.81 x Veh level | N-arachidonoyl taurine Direction (relative to Veh) (PND 35, 3 mg/kg CP 55,940): ↓ | N-arachidonoyl taurine Magnitude (x Veh level) (PND 35, 3 mg/kg CP 55,940): 0.87 x Veh level | N-docosahexaenoyl GABA Direction (relative to Veh) (PND 35, 3 mg/kg CP 55,940): ↓ | N-docosahexaenoyl GABA Magnitude (x Veh level) (PND 35, 3 mg/kg CP 55,940): 0.71 x Veh level | N-docosahexaenoyl alanine Direction (relative to Veh) (PND 35, 3 mg/kg CP 55,940): ↓ | N-docosahexaenoyl alanine Magnitude (x Veh level) (PND 35, 3 mg/kg CP 55,940): 0.69 x Veh level | N-docosahexaenoyl glycine Direction (relative to Veh) (PND 35, 3 mg/kg CP 55,940): ↓ | N-docosahexaenoyl glycine Magnitude (x Veh level) (PND 35, 3 mg/kg CP 55,940): 0.85 x Veh level | N-docosahexaenoyl leucine Direction (relative to Veh) (PND 35, 3 mg/kg CP 55,940): ↑ | N-docosahexaenoyl leucine Magnitude (x Veh level) (PND 35, 3 mg/kg CP 55,940): 1.78 x Veh level | N-docosahexaenoyl phenylalanine Direction (relative to Veh) (PND 35, 3 mg/kg CP 55,940): ↑ | N-docosahexaenoyl phenylalanine Magnitude (x Veh level) (PND 35, 3 mg/kg CP 55,940): 1.25 x Veh level | N-linoleoyl ethanolamine, Direction (relative to Veh) (PND 35, 3 mg/kg CP 55,940): ↑ | N-linoleoyl ethanolamine, Magnitude (x Veh level) (PND 35, 3 mg/kg CP 55,940): 1.29 x Veh level | N-oleoyl GABA Magnitude (x Veh level) (PND 35, 3 mg/kg CP 55,940): 0.81 x Veh level | N-oleoyl GABA direction (relative to Veh) (PND 35, 3 mg/kg CP 55,940): ↓ | N-oleoyl alanine Magnitude (x Veh level) (PND 35, 3 mg/kg CP 55,940): 0.84 x Veh level | N-oleoyl alanine direction (relative to Veh) (PND 35, 3 mg/kg CP 55,940): ↓
